Entries after “also recorded” stand apart in the source; their conditions may differ.

The values below come from US9975853B2, “Tetrahydroisoquinolinone derivatives and their use in the inhibition of the HSP70 protein” (Julius-Maximilians-Universitaet Wuerzburg, priority 2014, dated 2018).

For assay [1], the system named is apoptosis-inducing factor (AIF). Kind of assay: Apoptosis assay: nuclear translocation of AIF in INA-6 cells (Western blot). To be noted: INA-6, 0.6 μM, 8 hours, nuclear pellets. Format: cell-based, human. How it is done:
Apoptosis Assays. Hsp70-dependent prevention of apoptosis was investigated by analyses of the apoptosis-inducing factors (AIF) and of the caspases 9 and 3 in INA-6 cells. INA-6 cells were treated with 0.6 μM of compound trans-7b for 8 hours prior to analyze nuclear translocation of AIF. Staining of the nuclear protein lamin A was used as a loading control. […] Analysis of cleavage of the bona fide caspase substrate PARP served as a control for caspase activation. Co-treatment with the pan-caspase inhibitor Z-VAD-FMK (50 μM) was employed as another specificity control.
Western Blot Analysis. Protein expression levels were determined with Western blotting procedures (M. Chatterjee, et al., Blood 2002, 100, 3311-3318). Following separation by SDS-PAGE, proteins were transferred onto nitrocellulose membranes (Schleicher & Schuell, Dassel, Germany) and stained with antibodies against Hsp72, Hsp73, Hsp90 (all from Enzo Life Science, Lörrach, Germany), AIF, lamin A, caspases 9 and 3, PARP (all from Santa Cruz, Heidelberg, Germany). […] According to an established HSP72/73-dependent client protein signature and its role for survival in MM, the proposed anti-HSP72/73 effect of trans-7b in the INA-6 multiple myeloma (MM) cell line model was evaluated. […] Lysates were cleared by centrifugation, measured by quantitative protein assay (Bio-Rad, München, Germany) and subjected to SDS gel electrophoresis. […]

A further assay relates to INA-6 cells. Kind of assay: Viability of INA-6 cells under concomitant treatment with HSP90 inhibitor NVP-AUY922. Format: cell-based, human. To be noted: AUY922 7.5 nM plus trans-7b 3.5 μM, sublethal concentrations. How it is done: The heat shock protein HSP90, which critically cooperates with HSP72 and HSP73 to mediate a chaperone function for a multitude of proteins, is regarded as a reasonable therapeutic target in MM. […] Therefore, potential effects of a concomitant treatment of trans-7b with the HSP90 inhibitor NVP-AUY922 on viability of INA-6 cells were analyzed. INA-6 cells were incubated either with DMSO (as a solvent control), sublethal concentrations of AUY922 (7.5 nM) or trans-7b (3.5 μM) or with a combination of both. Viability was measured by Annexin V-FITC/propidium iodide double staining (BenderMedSystems, Vienna, Austria) according to the manufacturer's instructions. Cells were washed in PBS, incubated for 15 minutes in 100 ml binding buffer (10 mM HEPES/NaOH, pH 7.4, 140 mM NaCl, 2.5 mM CaCl2) containing 2.5 mL annexin V-FITC mix and 1 mg/ml PI and analyzed by flow cytometry (FACSCalibur/CELLQuest; Becton Dickinson, Heidelberg, Germany). Whereas early apoptosis is characterized by positive annexin V-FITC staining reaction, cells in a late apoptotic stage lose their membrane integrity and additionally incorporate PI. […] Raw data of three independent measurements were set in relation to their respective DMSO controls, and means and standard deviations were calculated using the Graphpad Prism software (Graphpad, La Jolla, USA).

For a further assay, the target named is T1, HSP73 (Homo sapiens, UniProt P11142).
T1 construct: endogenous in cells; host or cells: INA-6 multiple myeloma cells
T1 sequence (P11142 whole entry): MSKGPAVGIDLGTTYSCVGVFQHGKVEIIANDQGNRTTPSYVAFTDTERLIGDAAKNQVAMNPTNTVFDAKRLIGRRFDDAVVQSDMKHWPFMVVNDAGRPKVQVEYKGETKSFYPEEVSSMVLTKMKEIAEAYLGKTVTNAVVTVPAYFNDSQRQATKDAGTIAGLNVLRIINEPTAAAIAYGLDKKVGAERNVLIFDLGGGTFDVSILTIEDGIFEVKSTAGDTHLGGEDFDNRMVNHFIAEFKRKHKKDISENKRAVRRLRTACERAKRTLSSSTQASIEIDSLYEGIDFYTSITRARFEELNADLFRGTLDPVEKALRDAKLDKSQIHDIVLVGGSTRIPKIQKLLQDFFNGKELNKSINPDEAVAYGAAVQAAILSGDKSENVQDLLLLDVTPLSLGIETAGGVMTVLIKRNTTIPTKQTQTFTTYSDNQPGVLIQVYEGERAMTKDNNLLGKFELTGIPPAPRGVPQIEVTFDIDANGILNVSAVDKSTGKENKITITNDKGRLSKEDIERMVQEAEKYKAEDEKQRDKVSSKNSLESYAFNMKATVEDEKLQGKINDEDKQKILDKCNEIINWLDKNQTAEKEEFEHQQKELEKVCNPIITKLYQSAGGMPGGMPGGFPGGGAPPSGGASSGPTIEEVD
Kind of assay: Western blot analysis of HSP73 expression in INA-6 cells. The class given is cell-based. Particulars: INA-6, 0.6 μM, with Z-VAD-FMK 50 μM. How it is done:
(§1) Western Blot Analysis. Protein expression levels were determined with Western blotting procedures (M. Chatterjee, et al., Blood 2002, 100, 3311-3318). Following separation by SDS-PAGE, proteins were transferred onto nitrocellulose membranes (Schleicher & Schuell, Dassel, Germany) and stained with antibodies against Hsp72, Hsp73, Hsp90 (all from Enzo Life Science, Lörrach, Germany), AIF, lamin A, caspases 9 and 3, PARP (all from Santa Cruz, Heidelberg, Germany). An anti-α tubulin antibody (Sigma, Deisenhofen, Germany) was employed to assess equal loading. Secondary antibodies used were anti-rat (Enzo Life Science), anti-rabbit and anti-mouse (both from GE Healthcare, Little Chalfont, UK). […] The heat shock proteins HSP72 and HSP73 critically interact with HSP90 in order to mediate an essential chaperone function for a multitude of proteins including various signaling intermediates. According to an established HSP72/73-dependent client protein signature and its role for survival in MM, the proposed anti-HSP72/73 effect of trans-7b in the INA-6 multiple myeloma (MM) cell line model was evaluated. […] Lysates were cleared by centrifugation, measured by quantitative protein assay (Bio-Rad, München, Germany) and subjected to SDS gel electrophoresis. […]
(Immunoblotting shows a protein as a band on a membrane.)

Assay [2] concerns HSP70/HSP90 multi-chaperone client proteins. Kind of assay: Western blot analysis of HSP70/HSP90 chaperone-dependent signaling intermediates and substrates in INA-6 cells. Format: cell-based, human. Particulars: INA-6, 0.6 μM. How it is done: as §1

Take `COc1ccc(C2C(C(=O)Nc3cccc(C)n3)c3ccccc3C(=O)N2c2ccccc2)cc1` (stereo not drawn) [trans-7b, trans-3-(4-Methoxyphenyl)-N-(6-methylpyridin-2-yl)-1-oxo-2-phenyl-1,2,3,4-tetrahydroisoquinoline-4-carboxamide]: the “nuclear translocation of activated AIF” value in assay [1] is listed as “shifting from the cytosol to the nucleus”. In addition, in the assay with INA-6 cells, the “effect on the apoptotic effect of the HSP90 inhibitor NVP-AUY922 (viability)” value is “strongly enhanced”. For the same compound, the “HSP73 constitutive expression level” value on HSP73 is “decreases; also recorded: reduced”. Also, in assay [2], the “AKT, C-Raf, RIP, IKKα and MEK levels” value is given as “strongly downregulated”; the “p-MEK, p-ERK and pSTAT3 levels” value was “downregulated”.
